# pIC50: −log10 of the molar value. Where a SMILES comes first, the peptide text is derived from it. Bridges are numbered along the chain shown (N, C = ends). [ ]: non-standard residue; d: D form. The star is where a group is joined. ξ: configuration not given here. Ala(1H-tetrazol-5-yl) = N[C@@H](Cc1nnn[nH]1)C(=O)O; Phe(3-COOH) = N[C@@H](Cc1cccc(C(=O)O)c1)C(=O)O; Phe(4-COOH) = N[C@@H](Cc1ccc(C(=O)O)cc1)C(=O)O; Bip = N[C@@H](Cc1ccc(-c2ccccc2)cc1)C(=O)O; Ala(2-furyl) = N[C@@H](Cc1ccco1)C(=O)O; Phe(2-Cl) = N[C@@H](Cc1ccccc1Cl)C(=O)O; Phe(3-Me) = Cc1cccc(C[C@H](N)C(=O)O)c1; Val(3-OH) = CC(C)(O)[C@H](N)C(=O)O; 4Pal = N[C@@H](Cc1ccncc1)C(=O)O; 2Thi = N[C@@H](Cc1cccs1)C(=O)O; Cha = N[C@@H](CC1CCCCC1)C(=O)O; Cit = NC(=O)NCCC[C@H](N)C(=O)O; Thr(3ξ) = CC(O)[C@H](N)C(=O)O; Carboxymethyl = O=C(O)C*; Nle = CCCC[C@H](N)C(=O)O; Orn = NCCC[C@H](N)C(=O)O; Dab = NCC[C@H](N)C(=O)O; Dap = NC[C@H](N)C(=O)O
# Target: T1, human PD-1 / PD-L1-Ig binding on Jurkat cell line over-expressing human PD-1 (Jurkat-PD-1) (Homo sapiens, UniProt Q15116)
# T1 construct: expressed in transfected cells; host or cells: Jurkat
# Assay: Jurkat-PD-1 Cell Binding High-Content Screening Assay (CBA)
# Type: cell-based
# Conditions: Jurkat HPD1_PDL1 IC50, Jurkat-PD-1 cells, PE-labeled PD-L1-Ig 20 nM final
# Summary of the method: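 Cell-bound PE-labeled PD-L1-Ig (20 nM final, 1 h) measured by high-content imaging after fixation and Hoechst 33342 counterstain. Compound was applied first for 2 h at 37° C. to Jurkat cells over-expressing human PD-1 in DMEM with 10% FCS.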
# T1 sequence (Q15116 25-288): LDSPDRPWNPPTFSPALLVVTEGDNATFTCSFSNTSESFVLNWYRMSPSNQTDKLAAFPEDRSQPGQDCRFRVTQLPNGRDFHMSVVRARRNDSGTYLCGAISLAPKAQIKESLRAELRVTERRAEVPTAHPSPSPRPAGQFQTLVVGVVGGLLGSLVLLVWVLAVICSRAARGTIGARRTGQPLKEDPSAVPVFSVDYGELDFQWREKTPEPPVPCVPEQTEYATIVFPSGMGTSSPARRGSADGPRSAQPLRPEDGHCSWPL
row,Compound,pIC50
1,CC(C)C[C@H]1NC(=O)[C@H](CCCN)NC(=O)[C@H](CCC(=O)O)NC(=O)[C@H](Cc2ccc(-c3ccccc3)cc2)NC(=O)[C@H](C(C)C)NC(=O)[C@H](Cc2c[nH]c3ccccc23)NC(=O)[C@H](CC(=O)O)NC(=O)[C@H](Cc2ccc(OCC(=O)O)cc2)NC(=O)[C@H](Cc2ccncc2)NC(=O)CSC[C@@H](C(=O)N[C@@H](C)C(N)=O)NC(=O)[C@H]([C@@H](C)O)NC(=O)[C@H](C(C)C)NC(=O)[C@H](CC2CCCCC2)NC(=O)[C@H](Cc2c[nH]cn2)NC1=O [Compound 1609],7.82

# Same assay, conditions: Jurkat-PD-1 cells, PE-labeled PD-L1-Ig 20 nM final; read-out: Jurkat HPD1_PDL1 IC50
row,pIC50,Compound
1,8.00,CC(C)C[C@H]1NC(=O)[C@H](CCCN)NC(=O)[C@H](CCC(=O)O)NC(=O)[C@H](Cc2ccc(-c3ccccc3)cc2)NC(=O)[C@H](C(C)C)NC(=O)[C@H](Cc2cccs2)NC(=O)[C@H](CC(=O)O)NC(=O)[C@H](Cc2ccc(OCC(=O)O)cc2)NC(=O)[C@H](CN)NC(=O)CSC[C@@H](C(=O)N[C@@H](C)C(N)=O)NC(=O)[C@H]([C@@H](C)O)NC(=O)[C@H](C(C)C)NC(=O)[C@H](CC2CCCCC2)NC(=O)[C@H](CCN)NC1=O [Compound 2153] ({CH2CO}-[Dap]Y(Carboxymethyl)D[2Thi]V[Bip]E[Orn][dL][Dab][Cha]VTCA-NH2; thioether N-14)
2,8.48,CC(C)C[C@H]1NC(=O)[C@H](CCCN)NC(=O)[C@H](C(C)C)NC(=O)[C@H](Cc2ccc(-c3ccccc3)cc2)NC(=O)[C@H](C(C)C)NC(=O)[C@H](Cc2c[nH]c3ccccc23)NC(=O)[C@H](CC(=O)O)NC(=O)[C@H](Cc2ccc(OCC(=O)O)cc2)NC(=O)[C@H](C(C)O)NC(=O)CSC[C@@H](C(=O)N[C@H](CC(N)=O)C(N)=O)NC(=O)[C@H](CO)NC(=O)[C@H](C(C)C)NC(=O)[C@H](CC2CCCCC2)NC(=O)[C@H](CCN)NC1=O (stereo partly drawn) [Compound 2565] ({CH2CO}-[Thr(3ξ)]Y(Carboxymethyl)DWV[Bip]V[Orn][dL][Dab][Cha]VSC[dN]-NH2; thioether N-14)
3,7.84,CC(C)C[C@@H]1NC(=O)[C@H](Cc2c[nH]c3ccccc23)NC(=O)[C@H](CC(=O)O)NC(=O)[C@H](Cc2ccc(O)cc2)NC(=O)[C@H](Cc2ccccc2)NC(=O)CSC[C@@H](C(=O)N[C@@H](C)C(N)=O)NC(=O)[C@H](CO)NC(=O)[C@H](C(C)C)NC(=O)[C@H](CC(C)C)NC(=O)[C@H](CCN)NC(=O)[C@@H](CC(C)C)NC(=O)[C@H](CCN)NC(=O)[C@H](CCC(=O)O)NC(=O)[C@H](Cc2ccc(-c3ccccc3)cc2)NC1=O [Compound 1229] ({CH2CO}-FYDWL[Bip]E[Dab][dL][Dab]LVSCA-NH2; thioether N-14)
4,8.08,Cc1cccc(C[C@@H]2NC(=O)[C@H](CC(=O)O)NC(=O)[C@H](Cc3ccc(OCC(=O)O)cc3)NC(=O)[C@H](Cc3ccco3)NC(=O)CSC[C@@H](C(=O)N[C@@H](CCN)C(N)=O)NC(=O)[C@H](Cc3cnc[nH]3)NC(=O)[C@H](C(C)(C)O)NC(=O)[C@H](CC3CCCCC3)NC(=O)[C@H](CCN)NC(=O)[C@@H](CC(C)C)NC(=O)[C@H](CCCN)NC(=O)[C@H](Cc3ccc(OCC(=O)O)cc3)NC(=O)[C@H](Cc3ccc(-c4ccccc4)cc3)NC(=O)[C@H](Cc3ccc(OCC(=O)O)cc3)NC2=O)c1 [Compound 2646] ({CH2CO}-[Ala(2-furyl)]Y(Carboxymethyl)D[Phe(3-Me)]Y(Carboxymethyl)[Bip]Y(Carboxymethyl)[Orn][dL][Dab][Cha][Val(3-OH)]HC[Dab]-NH2; thioether N-14)
5,7.76,CC(C)C[C@@H]1NC(=O)[C@H](Cc2c[nH]c3ccccc23)NC(=O)[C@H](CC(=O)O)NC(=O)[C@H](Cc2ccc(C(=O)O)cc2)NC(=O)[C@H](Cc2cccc(C(=O)O)c2)NC(=O)CSC[C@@H](C(=O)NCC(N)=O)NC(=O)[C@H](CO)NC(=O)[C@H](C(C)C)NC(=O)[C@H](CC2CCCCC2)NC(=O)[C@H](CCN)NC(=O)[C@@H](CC(C)C)NC(=O)[C@H](CCCN)NC(=O)[C@H](C(C)C)NC(=O)[C@H](Cc2ccc(-c3ccccc3)cc2)NC1=O [Compound 2014] ({CH2CO}-[Phe(3-COOH)][Phe(4-COOH)]DWL[Bip]V[Orn][dL][Dab][Cha]VSCG-NH2; thioether N-14)
6,7.66,CCCC[C@@H]1NC(=O)[C@H](CC(N)=O)NC(=O)[C@@H](CC(C)C)NC(=O)[C@H](CN)NC(=O)[C@H](C(C)C)NC(=O)[C@H](Cc2ccc(-c3ccccc3)cc2)NC(=O)[C@H](CC(C)C)NC(=O)[C@H](Cc2c[nH]c3ccccc23)NC(=O)[C@H](CC(=O)O)NC(=O)[C@H](Cc2ccncc2)NC(=O)[C@H](Cc2ccc(OCC(=O)O)cc2)NC(=O)CSC[C@@H](C(=O)NCC(N)=O)NC(=O)[C@H](CO)NC(=O)[C@H](C(C)C)NC1=O [Compound 1401] ({CH2CO}-Y(Carboxymethyl)[4Pal]DWL[Bip]V[Dap][dL]N[Nle]VSCG-NH2; thioether N-14)
7,7.46,CC(C)C[C@H]1NC(=O)[C@H](CCCN)NC(=O)[C@H](CCC(=O)O)NC(=O)[C@H](Cc2ccc(-c3ccccc3)cc2)NC(=O)[C@H](C(C)C)NC(=O)[C@H](Cc2c[nH]c3ccccc23)NC(=O)[C@H](CC(=O)O)NC(=O)[C@H](Cc2ccc(OCC(=O)O)cc2)NC(=O)[C@H](CN)NC(=O)CSC[C@@H](C(=O)N[C@@H](C)C(N)=O)NC(=O)[C@H]([C@@H](C)O)NC(=O)[C@H](C(C)C)NC(=O)[C@H](Cc2ccccc2Cl)NC(=O)[C@H](CCN)NC1=O [Compound 1483] ({CH2CO}-[Dap]Y(Carboxymethyl)DWV[Bip]E[Orn][dL][Dab][Phe(2-Cl)]VTCA-NH2; thioether N-14)
8,7.46,Cc1cccc(C[C@@H]2NC(=O)[C@H](CC(=O)O)NC(=O)[C@H](Cc3ccc(OCC(=O)O)cc3)NC(=O)[C@H](C(C)O)NC(=O)CSC[C@@H](C(=O)N[C@H](CC(N)=O)C(N)=O)NC(=O)[C@H](C(C)O)NC(=O)[C@H](C(C)C)NC(=O)[C@H](CC3CCCCC3)NC(=O)[C@H](CCN)NC(=O)[C@@H](CC(C)C)NC(=O)[C@H](CCCN)NC(=O)[C@H](Cc3ccc(OCC(=O)O)cc3)NC(=O)[C@H](Cc3ccc(-c4ccccc4)cc3)NC(=O)[C@H](Cc3ccc(OCC(=O)O)cc3)NC2=O)c1 (stereo partly drawn) [Compound 2640] ({CH2CO}-[Thr(3ξ)]Y(Carboxymethyl)D[Phe(3-Me)]Y(Carboxymethyl)[Bip]Y(Carboxymethyl)[Orn][dL][Dab][Cha]V[Thr(3ξ)]C[dN]-NH2; thioether N-14)
9,7.86,CCCC[C@@H]1NC(=O)[C@H](CCN)NC(=O)[C@@H](CC(C)C)NC(=O)[C@H](CCCN)NC(=O)[C@H](CCCNC(N)=O)NC(=O)[C@H](Cc2ccc(-c3ccccc3)cc2)NC(=O)[C@H](C(C)C)NC(=O)[C@H](Cc2cccc(C)c2)NC(=O)[C@H](CC(=O)O)NC(=O)[C@H](Cc2ccc(OCC(=O)O)cc2)NC(=O)[C@H](Cc2ccncc2)NC(=O)CSC[C@@H](C(=O)N[C@@H](C)C(N)=O)NC(=O)[C@H]([C@@H](C)O)NC(=O)[C@H](C(C)C)NC1=O [Compound 1195] ({CH2CO}-[4Pal]Y(Carboxymethyl)D[Phe(3-Me)]V[Bip][Cit][Orn][dL][Dab][Nle]VTCA-NH2; thioether N-14)
10,7.28,CC(C)C[C@H]1NC(=O)[C@H](CCCN)NC(=O)[C@H](CCC(=O)O)NC(=O)[C@H](Cc2ccc(-c3ccccc3)cc2)NC(=O)[C@H](C(C)C)NC(=O)[C@H](Cc2c[nH]c3ccccc23)NC(=O)[C@H](CC(=O)O)NC(=O)[C@H](Cc2ccc3ncccc3c2)NC(=O)[C@H](Cc2ccc(OCC(=O)O)cc2)NC(=O)CSC[C@@H](C(=O)N[C@@H](C)C(N)=O)NC(=O)[C@H]([C@@H](C)O)NC(=O)[C@H](C(C)C)NC(=O)[C@H](CC2CCCCC2)NC(=O)[C@H](CCN)NC1=O [Compound 2178]
11,7.54,CC(C)C[C@@H]1NC(=O)[C@H](CCN)NC(=O)[C@@H](CC(C)C)NC(=O)[C@H](CCCN)NC(=O)[C@H](C(C)C)NC(=O)[C@H](Cc2ccc(-c3ccccc3)cc2)NC(=O)[C@H](C(C)C)NC(=O)[C@H](Cc2c[nH]c3ccccc23)NC(=O)[C@H](CC(N)=O)NC(=O)[C@H](Cc2ccc(O)cc2)NC(=O)[C@H](CC(N)=O)NC(=O)CSC[C@@H](C(=O)NCC(N)=O)NC(=O)[C@H]([C@@H](C)O)NC(=O)[C@H](C(C)C)NC1=O [Compound 1084] ({CH2CO}-NYNWV[Bip]V[Orn][dL][Dab]LVTCG-NH2; thioether N-14)
12,7.77,CC(C)C[C@H]1NC(=O)[C@H](CCCN)NC(=O)[C@H](C(C)C)NC(=O)[C@H](Cc2ccc(-c3ccccc3)cc2)NC(=O)[C@H](C(C)C)NC(=O)[C@H](Cc2cccc(C(F)(F)F)c2)NC(=O)[C@H](CC(=O)O)NC(=O)[C@H](Cc2ccc(C(=O)O)cc2)NC(=O)[C@H](Cc2ccc(OCC(=O)O)cc2)NC(=O)CSC[C@@H](C(=O)N[C@@H](C)C(N)=O)NC(=O)[C@H]([C@@H](C)O)NC(=O)[C@H](C(C)C)NC(=O)[C@H](CC2CCCCC2)NC(=O)[C@H](CCN)NC1=O [Compound 1571]
13,7.68,CC[C@H](C)[C@@H]1NC(=O)[C@H](Cc2ccc(-c3ccccc3)cc2)NC(=O)[C@H](C(C)C)NC(=O)[C@H](Cc2c[nH]c3ccccc23)NC(=O)[C@H](CC(=O)O)NC(=O)[C@H](Cc2ccc(O)cc2)NC(=O)[C@H](CC(N)=O)NC(=O)CSC[C@@H](C(=O)NCC(N)=O)NC(=O)[C@H](CO)NC(=O)[C@H](C(C)C)NC(=O)[C@H](CC(C)C)NC(=O)[C@H](CCN)NC(=O)[C@@H](CC(C)C)NC(=O)[C@H](CCCN)NC1=O [Compound 1121] ({CH2CO}-NYDWV[Bip]I[Orn][dL][Dab]LVSCG-NH2; thioether N-14)
14,7.26,Cc1cccc(C[C@@H]2NC(=O)[C@H](Cc3nn[nH]n3)NC(=O)[C@H](Cc3ccc(OCC(=O)O)cc3)NC(=O)[C@H](CN)NC(=O)CSC[C@@H](C(=O)NCC(N)=O)NC(=O)[C@H](CO)NC(=O)[C@H](C(C)C)NC(=O)[C@H](CC(C)C)NC(=O)[C@H](CC(N)=O)NC(=O)[C@@H](CC(C)C)NC(=O)[C@H](CN)NC(=O)[C@H](C(C)C)NC(=O)[C@H](Cc3ccc(-c4ccccc4)cc3)NC(=O)[C@H](CC(C)C)NC2=O)c1 [Compound 1273] ({CH2CO}-[Dap]Y(Carboxymethyl)[Ala(1H-tetrazol-5-yl)][Phe(3-Me)]L[Bip]V[Dap][dL]NLVSCG-NH2; thioether N-14)
